These results are taken from US20220009914A1, “Analogs of Nitrofuran Antibiotics to Combat Resistance” (The Trustees of Indiana University, priority 2020, published 2022).

Experiment [1] concerns the target T1, native MDH (Sus scrofa, UniProt P00346).
T1 sequence (P00346 25-338): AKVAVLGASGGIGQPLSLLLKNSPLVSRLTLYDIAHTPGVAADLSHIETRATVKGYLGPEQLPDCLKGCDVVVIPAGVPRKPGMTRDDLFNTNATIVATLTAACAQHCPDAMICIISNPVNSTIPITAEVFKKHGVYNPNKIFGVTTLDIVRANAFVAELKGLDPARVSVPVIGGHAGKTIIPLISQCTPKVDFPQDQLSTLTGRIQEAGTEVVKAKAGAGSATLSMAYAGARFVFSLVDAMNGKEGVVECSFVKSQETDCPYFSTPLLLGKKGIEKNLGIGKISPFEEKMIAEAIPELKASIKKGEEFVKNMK
Put plainly: native MDH enzymatic activity counter-screen. It is filed as biochemical, pig. How it is done: Reagent Preparations & Assay Protocol: This assay was performed as described above for the GroEL/ES-dMDH refolding assay; however, the assay protocol differed in the sequence of compound addition to the assay plates. The refolding reactions were allowed to proceed for 45 min at 37° C. in the absence of test compounds (complete refolding of MDH occurs), then quenched with the EDTA stock. Compounds were then pin-transferred into the plates after the EDTA quenching step; thus, compound effects are only possible by inhibiting the fully-refolded MDH reporter substrate. […] A340 nm measurements were recorded at 0.5 minutes (start point) and at successive time points until the amount of NADH consumed reached ˜90% (end point, generally between 20-35 minutes). Compounds were tested in 8-point, 3-fold dilution series (62.5 μM to 29 nM during the reporter reaction) in clear, flat-bottom 384-well microtiter plates. IC50 values for the MDH reporter enzyme were determined as described above. Results presented represent the averages of IC50 values obtained from at least five replicates.
Evaluating analogs for inhibiting GroEL/ES-mediated substrate refolding functions. […] We first evaluated all test compounds in our standard GroEL/ES-mediated refolding assays that employ either malate dehydrogenase (MDH) or rhodanese (Rho) as the denatured substrate reporter enzymes. When denatured, these enzymes are efficiently folded by GroEL/ES in the absence of inhibitors, and thus act as reporters to determine the degree of inhibition against the bacterial chaperonin system. Inhibition was examined in the presence of these two orthogonal substrates in order to support that GroEL/ES inhibitors were on-target. To further support on-target effects against GroEL/ES, we counter-screened for inhibition of the native MDH and Rho enzymatic reporter reactions, where test compounds were added after the denatured MDH and Rho substrate enzymes were completely refolded by GroEL/ES.
Background: Counterscreens check selectivity or assay interference.

The target of experiment [2] is T2, E. coli GroEL (Escherichia coli, UniProt P0A6F5).
T2 construct: made in house; host or cells: NEB 5-alpha E. coli
T2 sequence (P0A6F5 2-548): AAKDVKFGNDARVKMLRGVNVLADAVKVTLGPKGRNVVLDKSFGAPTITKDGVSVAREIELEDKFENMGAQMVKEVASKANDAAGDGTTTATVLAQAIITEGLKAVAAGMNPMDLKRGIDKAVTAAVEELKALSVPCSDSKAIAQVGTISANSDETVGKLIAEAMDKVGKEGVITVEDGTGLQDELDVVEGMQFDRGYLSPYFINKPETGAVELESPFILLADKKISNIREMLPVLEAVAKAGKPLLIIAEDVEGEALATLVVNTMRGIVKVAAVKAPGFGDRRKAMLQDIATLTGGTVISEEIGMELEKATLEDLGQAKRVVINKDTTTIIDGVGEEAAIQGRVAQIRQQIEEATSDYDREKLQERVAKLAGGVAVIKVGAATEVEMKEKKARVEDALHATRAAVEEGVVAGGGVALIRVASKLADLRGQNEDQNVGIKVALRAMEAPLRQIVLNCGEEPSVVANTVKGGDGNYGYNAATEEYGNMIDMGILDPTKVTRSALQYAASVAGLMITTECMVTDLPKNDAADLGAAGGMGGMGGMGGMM
Put plainly: GroEL-mediated ATPase assay. It is filed as biochemical. The procedure: Evaluating compounds for inhibition in the GroEL-mediated ATPase assay. All compounds were evaluated for inhibiting E. coli GroEL-mediated ATPase activity as per our previously reported procedure although employing only GroEL in solution and not containing GroES or denatured MDH. Evaluating compounds for inhibition in the GroEL-mediated ATPase assay.
Reagent preparation: For this assay, four primary reagent solutions were prepared: 1) GroEL protein solution; 2) ATP initiation solution; 3) EDTA quench solution; 4) malachite green reporter solution. The GroEL protein solution consisted of 100 nM of GroEL in folding buffer (50 mM Tris-HCl, pH 7.4, 50 mM KCl, 10 mM MgCl2, and 1 mM DTT), which was prepared immediately prior to dispensing into the assay plates. For the ATP initiation solution, ATP solid was diluted into folding buffer to a final concentration of 2 mM. Quench solution contained 300 mM EDTA (pH 8.0). The malachite green reporter solution contained 0.034% w/v malachite green, 1.04% w/v ammonium molybdate, 1% Tween-20, and 1 M HCl dissolved in H2O.
Assay Protocol: First, 10 μL aliquots of the GroEL protein solution were dispensed into clear, flat-bottom 384-well polystyrene plates. […] After incubating for 45 minutes at 37° C., 10 μL of the EDTA quench solution was added to quench the reaction cycle. Then, 60 μL of the malachite green reporter solution was added and the plates were incubated at room temperature for 10 min. The absorbance of the malachite green-phosphate complex was measured at 600 nm using a Molecular Devices SpectraMax Plus384 microplate reader. A second set of baseline control plates were prepared analogously, but without GroEL protein solution, to correct for possible interference from compound absorbance or turbidity. […] Results presented represent the averages of IC50 values obtained from at least four replicates.
Evaluating analogs for inhibiting GroEL-mediated ATPase activity. […] Thus, we further tested analogs in a well-established GroEL ATPase assay that employed malachite green to monitor inorganic phosphate liberated as GroEL hydrolyzed ATP. Briefly, a solution of GroEL was incubated with test compounds (8-point, 3-fold dilution series) and the assay was initiated by addition of ATP. After incubating for 45 minutes, the ATPase reaction was quenched by the addition of EDTA. Malachite green was then added to the assay to bind and detect free phosphates in solution (absorbance detection at k=600 nm). If analogs inhibited ATPase activity, then there would be no free phosphates for malachite green to bind, leading to minimal absorbance at 600 nm.

Setting [3] is: without NfsB nitroreductase, compounds added after refolding, read-out: Native MDH Activity IC50.
Setting [4] is: GroEL only, no GroES or dMDH, read-out: GroEL ATPase IC50.

The pIC50 is the IC50 on a negative log10 scale, so that one unit is a factor of ten.

pIC50: −log10 of the molar value. Where two headings read alike, the source gives them in different places.

In the case of `CN(C)c1ccc(C(=O)N/N=C/c2ccc(O)c3ncccc23)cc1` [Compound 8, 4-(dimethylamino)-N′-((8-hydroxyquinolin-5-yl)methylene)benzohydrazide], the pIC50 is less than 4.20 in experiment [1] (setting [3]) and less than 3.60 in experiment [2].

`O=C(N/N=C/c1ccc([N+](=O)[O-])o1)c1ccc(NS(=O)(=O)c2ccc(Br)cc2)cc1` [Compound 27, 4-bromo-N-(4-(2-((5-nitrofuran-2-yl)methylene)hydrazine-1-carbonyl)phenyl)benzenesulfonamide]: the pIC50 in experiment [1] was less than 4.20; in experiment [2], less than 3.60.

Consider `O=C(N/N=C/c1ccc(O)c2ncccc12)c1cccc(Oc2ccccc2)c1` [Compound 11, N′-((8-hydroxyquinolin-5-yl)methylene)-3-phenoxybenzohydrazide], for which the pIC50 is less than 4.20 in experiment [1] (setting [3]) and less than 3.60 in experiment [2].

As to `O=C(N/N=C/c1ccc([N+](=O)[O-])o1)c1ccccc1Oc1ccccc1` [Compound 23, N′-((5-nitrofuran-2-yl)methylene)-2-phenoxybenzohydrazide], the pIC50 in experiment [1] (setting [3]) is less than 4.20.

For the compound `O=[N+]([O-])c1ccc(O)c2ncccc12` [Nitroxoline, reference compound], the pIC50 in experiment [1] (setting [3]) is less than 4.20; in experiment [2], less than 3.60.

Turning to `COc1ccc(C(=O)N/N=C/c2ccc(O)cc2)cc1` [Compound 35, N′-(4-hydroxybenzylidene)-4-methoxybenzohydrazide], the pIC50 in experiment [1] (setting [3]) was less than 4.20; in experiment [2], less than 3.60.

With `O=C(N/N=C/c1ccc(O)c2ncccc12)c1cccs1` [Compound 3, N′-((8-hydroxyquinolin-5-yl)methylene)thiophene-2-carbohydrazide], the figures for the pIC50 in experiment [1] (setting [3]) and in experiment [2] were less than 4.20 and less than 3.60, respectively.

`O=C(N/N=C/c1ccc([N+](=O)[O-])o1)c1ccncc1` [Compound 19, N′-((5-nitrofuran-2-yl)methylene)isonicotinohydrazide] had a pIC50 in experiment [2] of less than 3.60.

As for `O=C(N/N=C/c1ccccc1)c1ccccc1` [Compound 38, N′-benzylidenebenzohydrazide], the pIC50 is less than 4.20 in experiment [1] (setting [3]) and less than 3.60 in experiment [2].

For the compound `O=C(N/N=C/c1ccc(O)c2ncccc12)c1ccc(NS(=O)(=O)c2cccs2)cc1` [Compound 13, N-(4-(2-((8-hydroxyquinolin-5-yl)methylene)hydrazine-1-carbonyl)phenyl)thiophene-2-sulfonamide], the values for the pIC50 in experiment [1] (setting [3]) and in experiment [2] were less than 4.20 and less than 3.60, respectively.

As for `COc1ccc(C(=O)NN)cc1` [Compound 42, reference compound], the pIC50 in experiment [1] (setting [3]) was less than 4.20; in experiment [2], less than 3.60.

With `O=C(N/N=C/c1ccc(O)c2ncccc12)c1ccncc1` [Compound 6, N′-((8-hydroxyquinolin-5-yl)methylene)isonicotinohydrazide], the results for the pIC50 in experiment [1] (setting [3]) and in experiment [2] were less than 4.20 and less than 3.60, respectively.

`O=C(N/N=C/c1ccc(O)c2ncccc12)c1ccccc1Oc1ccccc1` [Compound 10, N′-((8-hydroxyquinolin-5-yl)methylene)-2-phenoxybenzohydrazide]: the pIC50 in experiment [1] (setting [3]) is less than 4.20; in experiment [2], less than 3.60.

With `O=C(N/N=C/c1ccc([N+](=O)[O-])o1)c1ccc(NS(=O)(=O)c2cccs2)cc1` [Compound 26, N-(4-(2-((5-nitrofuran-2-yl)methylene)hydrazine-1-carbonyl)phenyl)thiophene-2-sulfonamide], the pIC50 is less than 4.20 in experiment [1] (setting [3]) and less than 3.60 in experiment [2].

On to `O=C(N/N=C/c1ccc(O)c2ccccc12)c1ccccc1` [Compound 30, N′-((4-hydroxynaphthalen-1-yl)methylene)benzohydrazide], for which the values for the pIC50 in experiment [1] (setting [3]) and in experiment [2] were less than 4.20 and less than 3.60, respectively.

Regarding `O=C(N/N=C/c1ccc([N+](=O)[O-])o1)c1cccc(Oc2ccccc2)c1` [Compound 24, N′-((5-nitrofuran-2-yl)methylene)-3-phenoxybenzohydrazide], the negative logarithm of the IC50 (pIC50) in experiment [1] (setting [3]) was less than 4.20; in experiment [2], less than 3.60.

Turning to `COc1ccc(C(=O)N/N=C/c2ccc(O)c3ccccc23)cc1` [Compound 29, N′-((4-hydroxynaphthalen-1-yl)methylene)-4-methoxybenzohydrazide], the pIC50 is less than 4.20 in experiment [1] (setting [3]) and less than 3.60 in experiment [2].

As for `O=C(N/N=C/c1ccc(O)cc1)c1ccccc1` [Compound 36, N′-(4-hydroxybenzylidene)benzohydrazide], the results for the pIC50 in experiment [1] (setting [3]) and in experiment [2] were less than 4.20 and less than 3.60, respectively.

In the case of `O=Cc1ccc(O)c2ncccc12` [Compound 40, reference compound], the figures for the pIC50 in experiment [1] (setting [3]) and in experiment [2] (setting [4]) were less than 4.20 and less than 3.60, respectively.

As to `O=C(N/N=C/c1ccc([N+](=O)[O-])o1)c1cccc2ccccc12` [Compound 22, N′-((5-nitrofuran-2-yl)methylene)-1-naphthohydrazide], the figures for the pIC50 in experiment [1] (setting [3]) and in experiment [2] were less than 4.20 and less than 3.60, respectively.

Turning to `CCOc1ccc(S(=O)(=O)Nc2ccc(C(=O)N/N=C/c3ccc(O)c4ncccc34)cc2)cc1` [Compound 15, 4-ethoxy-N-(4-(2-((8-hydroxyquinolin-5-yl)methylene)hydrazine-1-carbonyl)phenyl)benzenesulfonamide], the pIC50 in experiment [1] (setting [3]) was less than 4.20; in experiment [2] it was less than 3.60.

As for `O=Cc1ccc([N+](=O)[O-])o1` [Compound 41, reference compound], the pIC50 is less than 4.20 in experiment [1] (setting [3]) and less than 3.60 in experiment [2].

Consider `COc1ccc(C(=O)N/N=C/c2ccccc2)cc1` [Compound 37, N′-benzylidene-4-methoxybenzohydrazide], for which the pIC50 was less than 4.20 in experiment [1] (setting [3]) and less than 3.60 in experiment [2].

With `O=C(N/N=C/c1ccc([N+](=O)[O-])o1)c1cccs1` [Compound 16, N′-((5-nitrofuran-2-yl)methylene)thiophene-2-carbohydrazide], the pIC50 in experiment [2] (setting [4]) was less than 3.60.

Regarding `O=C(N/N=C/c1ccc([N+](=O)[O-])o1)c1ccc(Cl)s1` [Compound 17, 5-chloro-N′-((5-nitrofuran-2-yl)methylene)thiophene-2-carbohydrazide], the pIC50 in experiment [2] (setting [4]) was less than 3.60.

With `O=C(N/N=C/c1ccc([N+](=O)[O-])o1)c1ccccc1` [Compound 18, N′-((5-nitrofuran-2-yl)methylene)benzohydrazide], the pIC50 in experiment [2] was less than 3.60.

Consider `COc1ccc(C(=O)N/N=C/c2ccc([N+](=O)[O-])o2)cc1` [Compound 20, 4-methoxy-N′-((5-nitrofuran-2-yl)methylene)benzohydrazide], for which the pIC50 in experiment [2] was less than 3.60.

The compound `O=C1CN(/N=C/c2ccc([N+](=O)[O-])o2)C(=O)N1` [Nitrofurantoin, reference compound] gave a pIC50 in experiment [2] of less than 3.60.

In experiment [2], `CN(C)c1ccc(C(=O)N/N=C/c2ccc([N+](=O)[O-])o2)cc1` [Compound 21, 4-(dimethylamino)-N′-((5-nitrofuran-2-yl)methylene)benzohydrazide] had a pIC50 of less than 3.60.
